Earlier results, collected in US11396520B2, “Synthesis of the organoarsenical antibiotic arsinothricin and derivatives thereof” (THE FLORIDA INTERNATIONAL UNIVERSITY BOARD OF TRUSTEES, priority 2020, dated 2022).

Experiments:
[1] = system: Gram-positive and Gram-negative bacteria; settings: stated in words, no test described
[2] = system: carbapenem-resistant Enterobacter cloacae (CRE); settings: WHO ESKAPE pathogen CRE; stated in words, no test described
Mycobacterium bovis BCG = settings: M. bovis BCG; stated in words, no test described
glutamine synthetase = settings: stated in words, no test described

**Q.** Which antibiotic activity [1] does the source give for NC(CC[AsH](=O)CO)C(=O)O (stereo not shown) [AST, 2-amino-4-(hydroxymethylarsinoyl)-butanoic acid] here?
**A.** effective against both Gram-positive and Gram-negative bacteria

**Q.** And the antibiotic activity [2]?
**A.** effective against

**Q.** And the antibiotic activity (Mycobacterium bovis BCG)?
**A.** effective against

**Q.** What about the “inhibition of glutamine synthetase” value (glutamine synthetase) of the same compound?
**A.** inhibits glutamine synthetase
